System: cell layers
Test: USP (87) biological reactivity testing (cytotoxicity)
Format: cell-based
Set-up: key: “severe” reactivity meaning there was nearly complete destruction of all cell layers
Conditions: dilutions of 50 ppm BAK with EDTA in saline ophthalmic vehicle, down to 5% of use concentration
Protocol: Testing was conducted by a neutral third party laboratory to determine the cytotoxicity of benzalkonium chloride (BAK) when used as a preservative in a standard topical saline ophthalmic solution vehicle. Test solutions of BAK at various dilutions at the typical preservation concentration used in ophthalmic products (50 ppm) were subject to USP (87) biological reactivity testing and graded according to reactivity. All solutions contained EDTA as an adjunct to enable the BAK to be active against gram negative bacteria. All negative and positive controls were nominal.

Substance: benzalkonium chloride [BAK]
- USP (87) biological reactivity grade: severe
